From patent US10941145B2, “Toll-like receptor 7 (TLR7) agonists having a benzotriazole moiety, conjugates thereof, and methods and uses therefor” (BRISTOL-MYERS SQUIBB COMPANY, priority 2017, dated 2021)

Experiments:
human TLR7 = target: T1, human TLR7 (Homo sapiens, UniProt Q9NYK1); assay: HEK-Blue TLR7 reporter assay (TLR7 agonism); type: cell-based; details: HEK-Blue TLR7 cells, human TLR7-SEAP reporter, 18 h treatment
T1 construct: host or cells: HEK-Blue TLR7 cells (engineered human embryonic kidney cells)
T1 sequence (Q9NYK1 27-1049): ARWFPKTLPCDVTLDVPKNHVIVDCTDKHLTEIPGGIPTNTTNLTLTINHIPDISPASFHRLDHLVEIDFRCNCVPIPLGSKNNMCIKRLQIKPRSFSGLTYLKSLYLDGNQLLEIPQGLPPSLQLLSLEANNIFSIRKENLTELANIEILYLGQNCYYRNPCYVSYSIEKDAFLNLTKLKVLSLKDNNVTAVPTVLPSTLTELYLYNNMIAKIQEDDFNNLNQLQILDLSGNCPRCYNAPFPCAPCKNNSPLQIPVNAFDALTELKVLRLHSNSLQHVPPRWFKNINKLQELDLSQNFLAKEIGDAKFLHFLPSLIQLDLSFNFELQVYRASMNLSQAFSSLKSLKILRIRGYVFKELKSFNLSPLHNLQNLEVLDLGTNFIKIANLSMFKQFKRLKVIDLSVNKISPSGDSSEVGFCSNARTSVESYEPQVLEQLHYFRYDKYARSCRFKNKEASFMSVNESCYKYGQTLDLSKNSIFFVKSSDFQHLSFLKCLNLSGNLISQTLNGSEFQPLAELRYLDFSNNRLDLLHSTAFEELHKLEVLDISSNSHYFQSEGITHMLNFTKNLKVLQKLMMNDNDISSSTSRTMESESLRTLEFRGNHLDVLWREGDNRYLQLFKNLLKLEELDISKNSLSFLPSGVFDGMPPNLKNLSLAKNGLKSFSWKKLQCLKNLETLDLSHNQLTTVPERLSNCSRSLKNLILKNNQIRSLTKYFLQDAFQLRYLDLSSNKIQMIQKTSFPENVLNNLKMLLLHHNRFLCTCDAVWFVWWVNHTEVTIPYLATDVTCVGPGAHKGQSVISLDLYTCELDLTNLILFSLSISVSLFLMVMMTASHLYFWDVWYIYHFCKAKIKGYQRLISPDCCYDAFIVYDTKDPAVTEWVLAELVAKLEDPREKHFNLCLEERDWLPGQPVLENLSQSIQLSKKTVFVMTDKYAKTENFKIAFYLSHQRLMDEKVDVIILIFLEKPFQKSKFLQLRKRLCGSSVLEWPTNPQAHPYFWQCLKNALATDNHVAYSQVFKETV
Method: This example describes a method for assaying TLR7 agonist activity of the compounds disclosed in this specification.
HEK-Blue™ TLR7 cells were added to each well of a 384-well tissue-culture plate (15,000 cells per well) and incubated 16-18 h at 37° C., 5% CO2. Compounds (100 nl) were dispensed into wells containing the HEK-Blue™ TLR cells and the treated cells were incubated at 37° C., 5% CO2. After 18 h treatment ten microliters of freshly-prepared Quanti-Blue™ reagent (Invivogen) was added to each well, incubated for 30 min (37° C., 5% CO2) and SEAP levels measured using an Envision plate reader (OD=620 nm).

interleukin 6 (IL-6) = assay: Interleukin 6 (IL-6) induction in human whole blood; type: cell-based; details: 37° C., 20 h, AlphaLISA
Method: This example describes a method for assaying interleukin 6 induction by compounds disclosed in this specification.
Compounds diluted in DMSO were transferred to individual wells of a Matrix Technologies clear, V-bottom 384-well plate using ECHO acoustic liquid handling technology (25 nL per well). Human whole-blood samples (25 uL) were added to each well using a CyBio FeliX liquid handling instrument. The plate was shaken on a plate shaker for three min before the reaction mixtures at 37° C. for 20 h. Basel RPMI 1640 medium (supplemented with L-glutamine) was then added to each well (25 uL per well) prior to liberating plasma from each sample by centrifugation (450×g, 5 min, ambient temperature). Treated plasma samples (3 uL) were subsequently transferred to individual wells of a white, shallow, 384-well ProxiPlate (Perkin Elmer) using the FeliX liquid handling instrument and their interleukin 6 levels were measured using AlphaLISA technology as described by the manufacturer, PerkinElmer. Data analyses software was used to determine compound EC50 values where the baseline was established using average DMSO values and 100% induction established using reference compound values at the highest concentration tested. EC50's can be determined with software such as Graphpad Prism™.

IFN-α = details: fold less potent than the corresponding purine-8-one compound; cited from earlier work

SMILES | EC50 (human TLR7) [nM] | EC50 (interleukin 6 (IL-6)) [nM] | potency less than that of the corresponding purine-8-one compound, as measured by IFN-α induction (IFN-α) [×]
CCCCOc1nc(N)c2nc(O)n(Cc3ccc4c(c3)nnn4CCCl)c2n1 [Ia-02] | 26 | 53 | –
CCCCNCCn1nnc2cc(Cn3c(O)nc4c(N)nc(OCCCC)nc43)ccc21 [Ia-03] | 2.3 | 16.8 | –
CCCCOc1nc(N)c2nc(O)n(Cc3ccc4c(c3)nnn4CCNC3CC3)c2n1 [Ia-04] | 4 | 15.3 | –
CCCCOc1nc(N)c2nc(O)n(Cc3ccc4c(c3)nnn4CCO)c2n1 [Ia-01] | 5.4 | 37 | –
CCCCOc1nc(N)c2nc(O)n(Cc3ccc4c(c3)nnn4CCNC3CN(C(=O)OC(C)(C)C)C3)c2n1 [Ia-08] | 113 | – | –
CCCCOc1nc(N)c2nc(O)n(Cc3ccc4c(c3)nnn4CCNC3COC3)c2n1 [Ia-06] | 11 | 56.2 | –
CCCCOc1nc(N)c2nc(O)n(Cc3ccc4c(c3)nnn4CCNC3CCC3)c2n1 [Ia-05] | 0.9 | 22.5 | –
CCCCOc1nc(N)c2nc(O)n(Cc3ccc4c(c3)nnn4CCNCc3ccncc3)c2n1 [Ia-10] | 7.2 | 18.2 | –
CCCCOc1nc(N)c2c(n1)N(Cc1cccc(CN3CCCC3)c1)CC(=O)N2 [Vesatolimod, vesatolimod] | – | – | 100
CCCCOc1nc(N)c2nc(O)n(Cc3ccc4c(c3)nnn4CCNCC3COC3)c2n1 [Ia-07] | 2.4 | 19.7 | –
CCCCOc1nc(N)c2nc(O)n(Cc3ccc4c(c3)nnn4CCNCc3ccccc3)c2n1 [Ia-09] | 24 | 44 | –
